The values that follow come from patent publication US11021435B2, “Serotonin receptor-targeting compounds and methods” (priority 2014, dated 2021).

For assay [1], the system named is C57BI/6J mice. Nature of the assay: DOI-elicited head-twitch response (HTR) in C57BI/6J mice. The note with it: for DOI-elicited HTR: C57BI/6J mice, 5-FPT up to 5.6 mg/kg, AS-19 10 mg/kg, DPAT 0.5 mg/kg. The source says:
The 5-HT2A receptor is a predominant 5-HT receptor in the cortex, and serves important excitation modulation functions on glutamate pyramidal and GABA neurons.

The target of assay [2] is T1, human 5-HT7 receptors (Homo sapiens, UniProt P34969).
T1 construct: expressed in transfected cells
As to the kind of experiment: Functional assay, 5-HT7 Gs-cAMP signaling, relative to AS-19. The class given is cell-based. Conditions: for Functional activity at 5-HT7, in words / EC50: Gs-cAMP signaling.

Assay [3] deals with 5-HT2B (Homo sapiens, UniProt P41595). As to the kind of experiment: Binding affinity, HEK293 cells transiently over-expressing human 5-HT2B. On the set-up: expressed in transfected cells; host or cells: HEK293, transient. The note with it: mean (SEM).
Assay [4] addresses T2, human 5-HT7 receptors (5-HT7a) (Homo sapiens, UniProt P34969).
T2 construct: expressed in transfected cells
As to the kind of experiment: Radioligand competition binding ([3H]5-CT), HEK293 cells stably expressing human 5-HT7 receptors. Conditions: for Ki: human 5-HT7a, mean (SEM), at least three independent experiments, read-out: Affinity Ki 5-HT7. From the text:
FIGS. 4A-4C show the effects of 5-FPT are stereospecific. […] Data are expressed as the mean±SEM.
(In a radioligand displacement assay an active substance lowers the binding of a labelled ligand.)

For assay [5], the target named is T3, mouse 5-HT2A receptor (Mus musculus, UniProt P35363).
T3 construct: expressed in transfected cells; host or cells: HEK293, transient
Nature of the assay: Binding affinity, HEK293 cells transiently expressing mouse 5-HT2A. Conditions: for Ki: mouse, mean (SEM), read-out: Affinity Ki m5-HT2A.

Assay [6] has as its target T4, dopamine D2 receptor (Homo sapiens, UniProt P14416).
T4 construct: expressed in transfected cells; host or cells: HEK293, transient
Nature of the assay: Off-target binding affinity, dopamine D2.

In assay [7] the target is 5-HT2A (Homo sapiens, UniProt P28223). Nature of the assay: Binding affinity, HEK293 cells transiently over-expressing human 5-HT2A. Details: expressed in transfected cells; host or cells: HEK293, transient. The note with it: for Ki: human, mean (SEM).
Assay [8] concerns the target T5, 5-HT2C (Homo sapiens, UniProt P28335).
T5 sequence (P28335 33-458): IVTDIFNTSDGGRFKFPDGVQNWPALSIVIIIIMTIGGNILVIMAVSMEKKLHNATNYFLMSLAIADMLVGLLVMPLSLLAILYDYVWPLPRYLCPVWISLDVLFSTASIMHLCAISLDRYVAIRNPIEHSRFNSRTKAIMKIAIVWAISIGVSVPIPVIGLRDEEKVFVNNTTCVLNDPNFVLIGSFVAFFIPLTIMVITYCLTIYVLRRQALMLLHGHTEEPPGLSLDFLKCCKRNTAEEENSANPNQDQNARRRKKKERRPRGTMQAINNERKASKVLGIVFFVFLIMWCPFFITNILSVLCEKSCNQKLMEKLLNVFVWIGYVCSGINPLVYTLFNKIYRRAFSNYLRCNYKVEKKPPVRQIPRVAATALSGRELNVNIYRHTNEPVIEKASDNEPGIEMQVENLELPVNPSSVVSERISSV
As to the kind of experiment: Functional assay at 5-HT2C, relative to 5-HT. The class given is cell-based. Details: expressed in transfected cells; host or cells: HEK293, transient.

The target in assay [9] is T6, mouse 5-HT2C receptor (m5-HT2C-VNV) (Mus musculus, UniProt P34968, I157V/I161V).
T6 construct: expressed in transfected cells; host or cells: HEK293, transient
T6 sequence (P34968 33-459 I157V/I161V): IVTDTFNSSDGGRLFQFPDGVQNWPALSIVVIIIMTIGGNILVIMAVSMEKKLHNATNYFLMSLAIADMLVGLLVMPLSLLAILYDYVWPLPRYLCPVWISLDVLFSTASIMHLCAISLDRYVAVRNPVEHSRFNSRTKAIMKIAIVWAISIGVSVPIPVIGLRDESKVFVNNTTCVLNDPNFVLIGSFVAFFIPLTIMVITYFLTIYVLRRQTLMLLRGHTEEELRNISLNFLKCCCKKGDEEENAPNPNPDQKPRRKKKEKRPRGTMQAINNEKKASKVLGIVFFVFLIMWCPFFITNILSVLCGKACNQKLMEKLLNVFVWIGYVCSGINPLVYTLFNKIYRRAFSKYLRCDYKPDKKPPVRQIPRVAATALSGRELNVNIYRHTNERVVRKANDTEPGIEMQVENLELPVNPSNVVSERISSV
As to the kind of experiment: Binding affinity, HEK293 cells transiently expressing mouse 5-HT2C. Conditions: for Ki: mouse m5-HT2C-VNV.

Assay [10] has as its target T7, adrenergic α1B receptor (Homo sapiens, UniProt P35368).
T7 construct: expressed in transfected cells; host or cells: HEK293, transient
T7 sequence (P35368 1-520): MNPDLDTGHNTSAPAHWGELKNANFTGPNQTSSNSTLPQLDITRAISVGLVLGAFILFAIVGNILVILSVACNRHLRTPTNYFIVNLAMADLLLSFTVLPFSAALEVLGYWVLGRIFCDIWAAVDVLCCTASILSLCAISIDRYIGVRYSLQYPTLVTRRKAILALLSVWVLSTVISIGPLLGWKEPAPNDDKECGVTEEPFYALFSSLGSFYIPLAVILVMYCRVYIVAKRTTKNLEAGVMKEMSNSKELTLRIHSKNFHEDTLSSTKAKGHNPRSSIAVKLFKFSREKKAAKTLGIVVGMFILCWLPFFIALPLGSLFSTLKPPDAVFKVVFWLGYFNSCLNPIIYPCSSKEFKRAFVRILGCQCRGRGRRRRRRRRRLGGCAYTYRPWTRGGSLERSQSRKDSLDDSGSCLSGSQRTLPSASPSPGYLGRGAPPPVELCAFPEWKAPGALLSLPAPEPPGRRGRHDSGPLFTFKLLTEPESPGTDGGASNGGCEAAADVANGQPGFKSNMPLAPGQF
As to the kind of experiment: Off-target binding affinity, adrenergic α1B.

The target of assay [11] is T8, adrenergic α1A receptor (Homo sapiens, UniProt P35348).
T8 construct: expressed in transfected cells; host or cells: HEK293, transient
T8 sequence (P35348 1-466): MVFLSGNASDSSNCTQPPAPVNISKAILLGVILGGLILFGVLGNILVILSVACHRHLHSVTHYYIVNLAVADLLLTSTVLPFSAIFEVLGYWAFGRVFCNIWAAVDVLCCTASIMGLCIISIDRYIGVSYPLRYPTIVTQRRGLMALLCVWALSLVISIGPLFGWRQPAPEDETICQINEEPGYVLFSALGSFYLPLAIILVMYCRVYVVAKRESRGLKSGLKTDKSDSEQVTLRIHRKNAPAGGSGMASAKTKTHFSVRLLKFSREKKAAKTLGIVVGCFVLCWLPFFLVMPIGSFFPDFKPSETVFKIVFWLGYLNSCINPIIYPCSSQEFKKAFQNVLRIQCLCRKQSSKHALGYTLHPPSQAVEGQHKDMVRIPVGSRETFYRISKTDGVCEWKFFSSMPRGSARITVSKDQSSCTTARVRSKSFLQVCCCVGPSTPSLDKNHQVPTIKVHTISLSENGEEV
Nature of the assay: Off-target binding affinity, adrenergic α1A.

The target of assay [12] is T9, histamine H1 receptor (Homo sapiens, UniProt P35367).
T9 construct: expressed in transfected cells; host or cells: HEK293, transient
Nature of the assay: Off-target binding affinity, histamine H1.

The mark [13] stands for this setting: % of maximal response relative to AS-19, mean (SEM).

Each structure is given as a SMILES string. “Also recorded” adds a separate entry of the source. Where only a bound is given, the exact number is not on record here.

T2 sequence (P34969 1-445 isoform P34969-2): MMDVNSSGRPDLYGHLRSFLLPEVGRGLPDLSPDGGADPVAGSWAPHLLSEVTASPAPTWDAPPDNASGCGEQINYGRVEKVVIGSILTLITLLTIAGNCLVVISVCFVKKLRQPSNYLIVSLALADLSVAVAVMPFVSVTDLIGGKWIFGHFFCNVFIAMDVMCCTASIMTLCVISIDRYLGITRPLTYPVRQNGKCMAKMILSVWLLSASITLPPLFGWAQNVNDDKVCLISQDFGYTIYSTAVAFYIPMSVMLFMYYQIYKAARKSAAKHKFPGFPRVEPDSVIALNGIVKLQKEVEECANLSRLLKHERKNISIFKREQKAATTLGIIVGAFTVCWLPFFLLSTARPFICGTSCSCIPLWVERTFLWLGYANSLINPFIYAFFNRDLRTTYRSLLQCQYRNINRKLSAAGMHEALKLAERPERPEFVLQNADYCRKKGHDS
T1 sequence (P34969 1-445 isoform P34969-2): as above
T3 sequence (P35363 whole entry): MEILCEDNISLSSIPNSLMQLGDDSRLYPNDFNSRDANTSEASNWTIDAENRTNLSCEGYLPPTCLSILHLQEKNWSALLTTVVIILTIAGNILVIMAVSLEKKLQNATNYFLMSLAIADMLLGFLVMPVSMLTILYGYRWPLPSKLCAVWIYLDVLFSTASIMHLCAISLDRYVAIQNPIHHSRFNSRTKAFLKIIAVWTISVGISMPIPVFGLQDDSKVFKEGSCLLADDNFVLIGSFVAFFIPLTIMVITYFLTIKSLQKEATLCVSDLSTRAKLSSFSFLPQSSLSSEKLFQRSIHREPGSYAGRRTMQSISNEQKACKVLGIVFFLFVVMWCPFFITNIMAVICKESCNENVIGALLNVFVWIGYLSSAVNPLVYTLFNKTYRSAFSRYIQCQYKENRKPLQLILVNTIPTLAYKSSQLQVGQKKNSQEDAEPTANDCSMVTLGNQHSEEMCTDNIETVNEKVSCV
Chain of 5-HT2A (P28223 whole entry): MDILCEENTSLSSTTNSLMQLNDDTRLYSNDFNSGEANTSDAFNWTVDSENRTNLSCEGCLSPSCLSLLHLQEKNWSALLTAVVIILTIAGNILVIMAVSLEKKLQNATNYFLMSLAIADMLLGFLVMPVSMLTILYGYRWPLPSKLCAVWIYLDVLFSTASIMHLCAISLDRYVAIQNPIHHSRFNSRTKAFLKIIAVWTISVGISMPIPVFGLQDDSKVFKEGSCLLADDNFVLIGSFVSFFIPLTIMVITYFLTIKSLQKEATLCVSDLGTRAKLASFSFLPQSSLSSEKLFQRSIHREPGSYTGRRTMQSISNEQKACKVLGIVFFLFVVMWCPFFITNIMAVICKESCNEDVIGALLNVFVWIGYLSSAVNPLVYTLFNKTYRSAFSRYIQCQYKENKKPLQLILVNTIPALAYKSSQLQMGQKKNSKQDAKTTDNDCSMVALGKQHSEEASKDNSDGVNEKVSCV
Chain of 5-HT2B (P41595 whole entry): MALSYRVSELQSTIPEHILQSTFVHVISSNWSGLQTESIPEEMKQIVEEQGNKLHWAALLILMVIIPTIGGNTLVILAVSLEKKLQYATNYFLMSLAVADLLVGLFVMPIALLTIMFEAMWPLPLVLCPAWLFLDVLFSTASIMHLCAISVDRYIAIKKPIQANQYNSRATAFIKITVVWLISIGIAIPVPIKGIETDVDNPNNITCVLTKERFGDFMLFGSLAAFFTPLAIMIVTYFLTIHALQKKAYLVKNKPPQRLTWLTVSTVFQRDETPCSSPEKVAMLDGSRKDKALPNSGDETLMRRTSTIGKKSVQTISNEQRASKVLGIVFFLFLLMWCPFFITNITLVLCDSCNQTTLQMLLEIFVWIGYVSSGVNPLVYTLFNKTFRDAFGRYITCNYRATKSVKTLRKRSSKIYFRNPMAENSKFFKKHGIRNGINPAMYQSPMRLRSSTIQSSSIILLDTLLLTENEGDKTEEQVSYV
T9 sequence (P35367 whole entry): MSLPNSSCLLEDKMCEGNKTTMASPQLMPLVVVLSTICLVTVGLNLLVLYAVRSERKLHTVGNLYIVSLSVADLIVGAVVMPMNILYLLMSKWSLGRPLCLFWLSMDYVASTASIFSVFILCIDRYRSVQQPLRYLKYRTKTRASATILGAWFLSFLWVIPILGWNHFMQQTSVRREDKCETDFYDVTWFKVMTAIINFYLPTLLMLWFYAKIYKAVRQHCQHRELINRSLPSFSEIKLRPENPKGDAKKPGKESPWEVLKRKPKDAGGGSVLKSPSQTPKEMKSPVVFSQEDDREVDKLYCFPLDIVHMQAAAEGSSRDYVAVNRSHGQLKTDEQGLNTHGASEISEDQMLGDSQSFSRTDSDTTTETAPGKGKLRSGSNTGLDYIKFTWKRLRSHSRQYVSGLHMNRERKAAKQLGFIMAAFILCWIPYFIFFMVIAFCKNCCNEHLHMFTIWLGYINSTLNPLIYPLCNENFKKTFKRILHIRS
T4 sequence (P14416 whole entry): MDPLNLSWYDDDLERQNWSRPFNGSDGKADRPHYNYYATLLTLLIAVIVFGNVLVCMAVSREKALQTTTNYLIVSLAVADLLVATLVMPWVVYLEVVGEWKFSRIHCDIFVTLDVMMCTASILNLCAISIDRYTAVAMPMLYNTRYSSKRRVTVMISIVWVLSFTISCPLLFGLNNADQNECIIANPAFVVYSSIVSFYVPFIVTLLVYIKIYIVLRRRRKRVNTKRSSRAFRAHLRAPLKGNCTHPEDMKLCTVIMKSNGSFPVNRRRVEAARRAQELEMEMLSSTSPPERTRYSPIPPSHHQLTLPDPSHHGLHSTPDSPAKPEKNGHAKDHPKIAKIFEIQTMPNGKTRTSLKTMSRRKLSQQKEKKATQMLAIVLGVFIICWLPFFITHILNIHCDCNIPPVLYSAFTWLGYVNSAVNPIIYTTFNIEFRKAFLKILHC

With `CN(C)C1CCc2c(cccc2-c2ccccc2F)C1` (single isomer, unassigned; (-)) [(−)-5-FPT, 5-(2′-fluorophenyl)-N,N-dimethyl-1,2,3,4-tetrahydronaphthalen-2-amine], the “DOI-elicited HTR” value in [1] (DOI 1 mg/kg) was “substantially less efficacious than (+)-5-FPT”. The “EMAX 5-HT7” value in assay [2] (setting [13]) amounted to 29%. Further, the “Functional activity at 5-HT7, in words” value in assay [2] was “partial agonism; also recorded: low-potency”. The compound also gave an EC50 in assay [2] (mean (SEM)) of 378 nM. Also, the “5-HT7 functional potency, (−)-enantiomer less potent than (+)-isomer” value in assay [2] (ratio of EC50 values) is recorded as “about 11 times”. The Ki in assay [3] is 684 nM; in assay [4], 460 nM; in assay [5], 147 nM; in assay [6] it was greater than 1000 nM; in assay [7], 119 nM; in assay [9] (bound given in μM), greater than 1 µM. Also, the Ki is greater than 10000 nM in assay [10], greater than 10000 nM in assay [11] and greater than 1000 nM in assay [12]. For the same compound, the “Higher affinity than (+)-5-FPT at mouse 5-HT2A receptors” value in assay [5] is roughly 4 fold. In addition, in assay [7], the “Higher affinity than (+)-5-FPT at human 5-HT2A receptors” value is listed as roughly 8 fold. Moreover, the “Functional activity at 5-HT2C, in words” value in assay [8] is “low-potency”.
As to `CN(C)C1CCc2c(cccc2-c2ccccc2F)C1` (single isomer, unassigned; (+)) [(+)-5-FPT, 5-(2′-fluorophenyl)-N,N-dimethyl-1,2,3,4-tetrahydronaphthalen-2-amine], in assay [1] (5.6 mg/kg, DOI 1 mg/kg), the “DOI-elicited HTR, compound given 120 min (2 hrs) before testing” value is on record as “remained significant; also recorded: retains efficacy”. Also, the “DOI-elicited HTR, compound given 180 min (3 hrs) before testing” value in [1] (5.6 mg/kg, DOI 1 mg/kg) was “did not block the DOI HTR”. In [1] (DOI 1 mg/kg), the “DOI-elicited HTR” value is reported as “dose-dependently attenuated the DOI-elicited HTR; also recorded: significantly attenuated the DOI HTR; also recorded: dose-dependently blocks”. Besides, in [1] (oral gavage 3 mg/kg 10 min prior to subcutaneous 1 mg/kg DOI), the “DOI-elicited HTR after oral administration” value was “significantly attenuated the DOI HTR; also recorded: attenuates the HTR”. Also, the Emax came to 33% in [2] (setting [13]) and 87% in [8] (% of maximal response relative to 5-HT, mean (SEM)). In addition, the “Functional activity at 5-HT7, in words” value in [2] is “partial agonist”. For the same compound, the EC50 in assay [2] (mean (SEM)) amounted to 34 nM; in assay [8] (mean (SEM)), 230 nM. Besides, the Ki was 60 nM in assay [3]; 5.8 nM in assay [4]; 632 nM in assay [5]; greater than 1000 nM in assay [6]; 886 nM in [7]; 0.644 µM in assay [9] (mean (SEM)). The Ki in assay [10] was greater than 10000 nM; in assay [11], greater than 10000 nM; in assay [12], greater than 1000 nM. Further, the “5-HT7 affinity, (+)-enantiomer more potent than (−)-enantiomer” value in assay [4] (ratio of Ki values) is “about 80 times”. The “Affinity at 5-HT2A receptors, in words” value in [7] is given as “very low”. Also, the “Functional activity at 5-HT2C, in words” value in [8] was “nearly full-efficacy agonist”. Moreover, the “Mouse 5-HT2C versus human 5-HT2C receptor affinity” value in assay [9] is given as roughly 2.5 times.

By EC50 is commonly meant the concentration needed to bring the measured effect to its halfway point. Read a low EC50 as greater potency. What is called Ki is a measure of affinity in units of concentration, obtained from inhibition or displacement. One may read the Emax as the size of the effect at its maximum, as opposed to the concentration needed.
